How the values were obtained:
Experiment in all cases: relative viability (nuclei count vs DMSO), 5 days (fraction); higher = more cells survive
EMC-BAC-2 = tested on: EMC-BAC-2
Outline: (§1)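 Relative viability was taken as the ratio of nuclei in treated wells to nuclei in vehicle wells. Lung cancer cell lines in 1536-well plates received compounds by pin tool one day after seeding, either one drug alone or a fixed anchor-drug dose plus five library-drug doses (not always all listed) in √10 steps. Nuclei were counted on 4× images after 5 days of treatment, and values are medians of duplicate plates.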

EPLC-272H = tested on: EPLC-272H
Outline: as §1

HCC-78 = tested on: HCC-78
Outline: as §1

HCC-827 = tested on: HCC-827
Outline: as §1

LCLC-103H = tested on: LCLC-103H
Outline: as §1

LK-2 = tested on: LK-2
Outline: as §1

LOU-NH91 = tested on: LOU-NH91
Outline: as §1

LU99A = tested on: LU99A
Outline: as §1

LXF-289 = tested on: LXF-289
Outline: as §1

NCI-H1563 = tested on: NCI-H1563
Outline: as §1

NCI-H1666 = tested on: NCI-H1666
Outline: as §1

NCI-H1975 = tested on: NCI-H1975
Outline: as §1

NCI-H2085 = tested on: NCI-H2085
Outline: as §1

NCI-H2126 = tested on: NCI-H2126
Outline: as §1

NCI-H23 = tested on: NCI-H23
Outline: as §1

NCI-H2405 = tested on: NCI-H2405
Outline: as §1

NCI-H3122 = tested on: NCI-H3122
Outline: as §1

NCI-H322M = tested on: NCI-H322M
Outline: as §1

RERF-LC-KJ = tested on: RERF-LC-KJ
Outline: as §1

SK-LU-1 = tested on: SK-LU-1
Outline: as §1

SW 1573 = tested on: SW 1573
Outline: as §1

Oc1nc(-c2ccc(C(F)(F)F)cc2)nc2c1CSCC2 [XAV939] + Cc1nc(NC(=O)N2CCC[C@H]2C(N)=O)sc1-c1ccnc(C(C)(C)C(F)(F)F)c1 [Alpelisib] (partner 2 µM)
relative viability (EMC-BAC-2; first compound 0.08 µM): 0.859
relative viability (EMC-BAC-2; first compound 0.253 µM): 0.69
relative viability (EMC-BAC-2; first compound 0.8 µM): 0.621
relative viability (EMC-BAC-2; first compound 2.53 µM): 0.367
relative viability (EPLC-272H; first compound 0.08 µM): 0.958
relative viability (EPLC-272H; first compound 0.253 µM): 0.863
relative viability (EPLC-272H; first compound 0.8 µM): 0.908
relative viability (EPLC-272H; first compound 2.53 µM): 0.889
relative viability (HCC-78; first compound 0.08 µM): 0.35
relative viability (HCC-78; first compound 0.253 µM): 0.248
relative viability (HCC-78; first compound 0.8 µM): 0.375
relative viability (HCC-78; first compound 2.53 µM): 0.273
relative viability (HCC-827; first compound 0.08 µM): 1.04
relative viability (HCC-827; first compound 0.253 µM): 0.934
relative viability (HCC-827; first compound 0.8 µM): 0.967
relative viability (HCC-827; first compound 2.53 µM): 0.969
relative viability (LCLC-103H; first compound 0.08 µM): 0.941
relative viability (LCLC-103H; first compound 0.253 µM): 0.766
relative viability (LCLC-103H; first compound 0.8 µM): 0.852
relative viability (LCLC-103H; first compound 2.53 µM): 0.873
relative viability (LK-2; first compound 0.08 µM): 1.03
relative viability (LK-2; first compound 0.253 µM): 1.02
relative viability (LK-2; first compound 0.8 µM): 1.1
relative viability (LK-2; first compound 2.53 µM): 0.923
relative viability (LOU-NH91; first compound 0.08 µM): 0.687
relative viability (LOU-NH91; first compound 0.253 µM): 0.659
relative viability (LOU-NH91; first compound 0.8 µM): 0.714
relative viability (LOU-NH91; first compound 2.53 µM): 0.648
relative viability (LU99A; first compound 0.08 µM): 0.501
relative viability (LU99A; first compound 0.253 µM): 0.579
relative viability (LU99A; first compound 0.8 µM): 0.494
relative viability (LU99A; first compound 2.53 µM): 0.4
relative viability (LXF-289; first compound 0.08 µM): 1.04
relative viability (LXF-289; first compound 0.253 µM): 0.996
relative viability (LXF-289; first compound 0.8 µM): 1.01
relative viability (LXF-289; first compound 2.53 µM): 1.01
relative viability (NCI-H1563; first compound 0.08 µM): 0.937
relative viability (NCI-H1563; first compound 0.253 µM): 0.864
relative viability (NCI-H1563; first compound 0.8 µM): 0.804
relative viability (NCI-H1563; first compound 2.53 µM): 0.708
relative viability (NCI-H1666; first compound 0.08 µM): 0.87
relative viability (NCI-H1666; first compound 0.253 µM): 0.63
relative viability (NCI-H1666; first compound 0.8 µM): 0.721
relative viability (NCI-H1666; first compound 2.53 µM): 0.591
relative viability (NCI-H1975; first compound 0.08 µM): 0.619
relative viability (NCI-H1975; first compound 0.253 µM): 0.573
relative viability (NCI-H1975; first compound 0.8 µM): 0.566
relative viability (NCI-H1975; first compound 2.53 µM): 0.445
relative viability (NCI-H2085; first compound 0.08 µM): 0.993
relative viability (NCI-H2085; first compound 0.253 µM): 0.898
relative viability (NCI-H2085; first compound 0.8 µM): 0.814
relative viability (NCI-H2085; first compound 2.53 µM): 0.737
relative viability (NCI-H2126; first compound 0.08 µM): 0.748
relative viability (NCI-H2126; first compound 0.253 µM): 0.661
relative viability (NCI-H2126; first compound 0.8 µM): 0.664
relative viability (NCI-H2126; first compound 2.53 µM): 0.563
relative viability (NCI-H23; first compound 0.08 µM): 0.663
relative viability (NCI-H23; first compound 0.253 µM): 0.659
relative viability (NCI-H23; first compound 0.8 µM): 0.627
relative viability (NCI-H23; first compound 2.53 µM): 0.456
relative viability (NCI-H2405; first compound 0.08 µM): 0.922
relative viability (NCI-H2405; first compound 0.253 µM): 0.804
relative viability (NCI-H2405; first compound 0.8 µM): 0.732
relative viability (NCI-H2405; first compound 2.53 µM): 0.635
relative viability (NCI-H3122; first compound 0.08 µM): 0.812
relative viability (NCI-H3122; first compound 0.253 µM): 0.575
relative viability (NCI-H3122; first compound 0.8 µM): 0.757
relative viability (NCI-H3122; first compound 2.53 µM): 0.358
relative viability (NCI-H322M; first compound 0.08 µM): 0.844
relative viability (NCI-H322M; first compound 0.253 µM): 0.656
relative viability (NCI-H322M; first compound 0.8 µM): 0.741
relative viability (NCI-H322M; first compound 2.53 µM): 0.718
relative viability (RERF-LC-KJ; first compound 0.08 µM): 0.702
relative viability (RERF-LC-KJ; first compound 0.253 µM): 0.708
relative viability (RERF-LC-KJ; first compound 0.8 µM): 0.768
relative viability (RERF-LC-KJ; first compound 2.53 µM): 0.735
relative viability (SK-LU-1; first compound 0.08 µM): 0.993
relative viability (SK-LU-1; first compound 0.253 µM): 0.883
relative viability (SK-LU-1; first compound 0.8 µM): 1
relative viability (SK-LU-1; first compound 2.53 µM): 1.07
relative viability (SW 1573; first compound 0.08 µM): 0.712
relative viability (SW 1573; first compound 0.253 µM): 0.552
relative viability (SW 1573; first compound 0.8 µM): 0.515
relative viability (SW 1573; first compound 2.53 µM): 0.464
